Laboratory results reported in patent publication US20150105252A1, “SUBSTITUTED PYRAZOLES AS HERBICIDES” (E I DU PONT DE NEMOURS AND COMPANY, priority 2013, published 2015).

Assays:
[1] = system: pigweed; experiment: Test A postemergence; assay type: in vivo, Amaranthus retroflexus; settings: Postemergence
Method in brief: (§1)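 Ratings express plant response from 0 (no effect) to 100 (complete control), judged visually against untreated controls after approximately 10 days in the greenhouse. Preemergence applications were made as directed soil sprays onto seeded loam–sand mix, and postemergence applications onto 2–10 cm plants at one- to two-leaf stage.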

[2] = system: barnyardgrass; experiment: Test B flood; assay type: in vivo, Echinochloa crus-galli; settings: 250 g ai/ha, visual rating on 0 to 100 scale (0 no effect, 100 complete control), 13 to 15 days
Method in brief: (§2)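 Response scored visually, 0–100 relative to controls, 13–15 days after the compound was applied into paddy water; plants were at the 2-leaf stage in pots kept flooded to 3 cm.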

[3] = system: ducksalad; experiment: Test B flood; assay type: in vivo, Heteranthera limosa; settings: 250 g ai/ha, visual rating on 0 to 100 scale (0 no effect, 100 complete control), 13 to 15 days
Method in brief: as §2

[4] = system: wheat; experiment: Test A postemergence; assay type: in vivo, Triticum aestivum; settings: Postemergence
Method in brief: as §1

[5] = system: barnyardgrass; experiment: Test A preemergence; assay type: in vivo, Echinochloa crus-galli; settings: preemergence; for Barnyardgrass plant response rating (0 to 100 scale, 0 is no effect, 100 is complete control): 125 g ai/ha, visual injury approx. 10 days after treatment; for Barnyardgrass plant response rating: 500 g ai/ha, visual injury after approx. 10 days, 0 to 100 scale (0 no effect, 100 complete control)
Method in brief: as §1

[6] = system: morningglory; experiment: Test A preemergence; assay type: in vivo, Ipomoea spp.; settings: preemergence, 125 g ai/ha, visual injury approx. 10 days after treatment
Method in brief: as §1

[7] = system: morningglory; experiment: Test A postemergence; assay type: in vivo, Ipomoea spp.; settings: Postemergence
Method in brief: as §1

[8] = system: velvetleaf; experiment: Test A preemergence; assay type: in vivo, Abutilon theophrasti; settings: preemergence, 125 g ai/ha, visual injury approx. 10 days after treatment
Method in brief: as §1

[9] = system: foxtail, giant; experiment: Test A postemergence; assay type: in vivo, Setaria faberii; settings: Postemergence
Method in brief: as §1

[10] = system: corn; experiment: Test A postemergence; assay type: in vivo, Zea mays; settings: Postemergence
Method in brief: as §1

[11] = system: pigweed; experiment: Test A preemergence; assay type: in vivo, Amaranthus retroflexus; settings: preemergence, 125 g ai/ha, visual injury approx. 10 days after treatment
Method in brief: as §1

[12] = system: sedge, umbrella; experiment: Test B flood; assay type: in vivo, Cyperus difformis; settings: 250 g ai/ha, visual rating on 0 to 100 scale (0 no effect, 100 complete control), 13 to 15 days
Method in brief: as §2

[13] = system: crabgrass, large; experiment: Test A preemergence; assay type: in vivo, Digitaria sanguinalis; settings: preemergence; for Crabgrass, Large plant response rating (0 to 100 scale): 125 g ai/ha, visual injury approx. 10 days after treatment; for Crabgrass, Large plant response rating: 500 g ai/ha, visual injury after approx. 10 days, 0 to 100 scale (0 no effect, 100 complete control)
Method in brief: as §1

[14] = system: rice; experiment: Test B flood; assay type: in vivo, Oryza sativa; settings: 250 g ai/ha, visual rating on 0 to 100 scale (0 no effect, 100 complete control), 13 to 15 days
Method in brief: as §2

[15] = system: crabgrass, large; experiment: Test A postemergence; assay type: in vivo, Digitaria sanguinalis; settings: Postemergence
Method in brief: as §1

[16] = system: wheat; experiment: Test A preemergence; assay type: in vivo, Triticum aestivum; settings: preemergence, 125 g ai/ha, visual injury approx. 10 days after treatment
Method in brief: as §1

[17] = system: corn; experiment: Test A preemergence; assay type: in vivo, Zea mays; settings: preemergence; for Corn plant response rating (0 to 100 scale): 125 g ai/ha, visual injury approx. 10 days after treatment; for Corn plant response rating: 500 g ai/ha, visual injury after approx. 10 days, 0 to 100 scale (0 no effect, 100 complete control)
Method in brief: as §1

[18] = system: velvetleaf; experiment: Test A postemergence; assay type: in vivo, Abutilon theophrasti; settings: Postemergence
Method in brief: as §1

[19] = system: barnyardgrass; experiment: Test A postemergence; assay type: in vivo, Echinochloa crus-galli; settings: Postemergence
Method in brief: as §1

[20] = system: foxtail, giant; experiment: Test A preemergence; assay type: in vivo, Setaria faberii; settings: preemergence; for Foxtail, Giant plant response rating (0 to 100 scale): 125 g ai/ha, visual injury approx. 10 days after treatment; for Foxtail, Giant plant response rating: 500 g ai/ha, visual injury after approx. 10 days, 0 to 100 scale (0 no effect, 100 complete control)
Method in brief: as §1

[21] = 125 g ai/ha, 0 to 100 scale, 0 no effect, 100 complete control
[22] = 500 g ai/ha, 0 to 100 scale (0 no effect, 100 complete control)

SMILES	Pigweed plant response rating [1, 21]	Pigweed plant response rating [1, 22]	Plant response rating, Barnyardgrass [2]	Plant response rating, Ducksalad [3]	Wheat plant response rating [4, 21]	Wheat plant response rating [4, 22]	Barnyardgrass plant response rating (0 to 100 scale, 0 is no effect, 100 is complete control) [5]	Barnyardgrass plant response rating [5]	Morningglory plant response rating (0 to 100 scale) [6]	Morningglory plant response rating [7, 21]	Morningglory plant response rating [7, 22]	Velvetleaf plant response rating (0 to 100 scale) [8]	Foxtail, Giant plant response rating [9, 21]	Foxtail, Giant plant response rating [9, 22]	Corn plant response rating [10, 21]	Corn plant response rating [10, 22]	Pigweed plant response rating (0 to 100 scale) [11]	Plant response rating, Sedge, Umbrella [12]	Crabgrass, Large plant response rating (0 to 100 scale) [13]	Crabgrass, Large plant response rating [13]	also measured
CCc1cc(C(=O)NC2CC2)nn1Oc1cccc(C(F)(F)F)c1 [Compound 215]	40	90	0	30	0	10	0	60	0	30	100	0	10	70	10	20	10	20	50	100	Plant response rating, Rice [14]: 10; Crabgrass, Large plant response rating [15, 21]: 10; Crabgrass, Large plant response rating [15, 22]: 60; Wheat plant response rating (0 to 100 scale) [16]: 0; Corn plant response rating (0 to 100 scale) [17]: 0; Corn plant response rating [17]: 0; Velvetleaf plant response rating [18, 21]: 10; Velvetleaf plant response rating [18, 22]: 60; Barnyardgrass plant response rating [19, 21]: 10; Barnyardgrass plant response rating [19, 22]: 40; Foxtail, Giant plant response rating (0 to 100 scale) [20]: 10; Foxtail, Giant plant response rating [20]: 70
CCc1cc(C(=O)NCC(F)(F)F)nn1Oc1cccc(OC(F)(F)F)c1 [Compound 221]	20	60	0	0	0	10	0	10	0	30	80	0	10	30	10	20	0	0	10	90	Plant response rating, Rice [14]: 0; Crabgrass, Large plant response rating [15, 21]: 10; Crabgrass, Large plant response rating [15, 22]: 30; Wheat plant response rating (0 to 100 scale) [16]: 0; Corn plant response rating (0 to 100 scale) [17]: 0; Corn plant response rating [17]: 0; Velvetleaf plant response rating [18, 21]: 0; Velvetleaf plant response rating [18, 22]: 20; Barnyardgrass plant response rating [19, 21]: 10; Barnyardgrass plant response rating [19, 22]: 10; Foxtail, Giant plant response rating (0 to 100 scale) [20]: 0; Foxtail, Giant plant response rating [20]: 40
CCc1cc(C(=O)NC2CC2)nn1Oc1cccc(OC(F)(F)F)c1 [Compound 222]	30	100	0	55	0	20	0	90	0	30	50	0	20	70	0	60	20	65	80	100	Plant response rating, Rice [14]: 15; Crabgrass, Large plant response rating [15, 21]: 40; Crabgrass, Large plant response rating [15, 22]: 90; Wheat plant response rating (0 to 100 scale) [16]: 0; Corn plant response rating (0 to 100 scale) [17]: 0; Corn plant response rating [17]: 0; Velvetleaf plant response rating [18, 21]: 30; Velvetleaf plant response rating [18, 22]: 50; Barnyardgrass plant response rating [19, 21]: 80; Barnyardgrass plant response rating [19, 22]: 80; Foxtail, Giant plant response rating (0 to 100 scale) [20]: 0; Foxtail, Giant plant response rating [20]: 80
CCNC(=O)c1cc(CC)n(Oc2cccc(OC(F)(F)F)c2)n1 [Compound 223]	20	60	0	25	0	10	0	40	0	0	30	0	0	30	0	30	0	65	20	90	Plant response rating, Rice [14]: 25; Crabgrass, Large plant response rating [15, 21]: 20; Crabgrass, Large plant response rating [15, 22]: 70; Wheat plant response rating (0 to 100 scale) [16]: 0; Corn plant response rating (0 to 100 scale) [17]: 0; Corn plant response rating [17]: 0; Velvetleaf plant response rating [18, 21]: 0; Velvetleaf plant response rating [18, 22]: 30; Barnyardgrass plant response rating [19, 21]: 0; Barnyardgrass plant response rating [19, 22]: 50; Foxtail, Giant plant response rating (0 to 100 scale) [20]: 0; Foxtail, Giant plant response rating [20]: 20
